Patent US12590118B2, “Salt and crystal form of steroid derivative regulator” (Shanghai Hansoh Biomedical Co., Ltd., priority 2019, dated 2026)

Assays:
[1] = Crystal form stability experiment (XRPD); type: physicochemical
Description: X-ray powder diffraction assay was carried out, and the obtained data was compared with the initial data.

[2] = Competitive experiment of different crystal forms of the free base; type: physicochemical; settings: 40° C.
Description: The stability among crystal forms I, II and III of the free base of Example 40 was investigated, so as to select the stable crystal form.
Multiple portions of about 20 mg of crystal forms I, II and III of the free base of Example 40 were accurately weighed, and mixed in pairs in equal amounts. Methyl tert-butyl ether and n-heptane were added respectively, and the resulting mixture was stirred at 40° C. for 7 days. The mixture was centrifuged at high speed, the supernatant was removed, and the resulting solid precipitate was vacuum dried in an oven at 40° C. and characterized by XRPD.

C[C@@H]1C[C@H](C(=O)Cn2ccc(C#N)n2)[C@@]2(C)CC[C@H]3[C@@H](CC[C@@H]4C[C@](C)(O)CC[C@@H]43)[C@H]12 [Crystal form I, 1-(2-((3R,5R,8R,9R,10S,13S,14S,15R,17S)-3-Hydroxy-3,13,15-trimethylhexadecahydro-1H-cyclopenta[a]phenanthren-17-yl)-2-oxoethyl)-1H-pyrazole-3-carbonitrile]
17.3: X-ray powder diffraction peak No. 6 ([1]; 25° C. RH75%, 5 days) | X-ray powder diffraction peak No. 6 ([1]; 25° C. RH75%, 10 days) | X-ray powder diffraction peak No. 6 ([1]; 25° C. RH90%, 5 days) | X-ray powder diffraction peak No. 6 ([1]; 25° C. RH90%, 10 days) | X-ray powder diffraction peak No. 6 ([1]; 25° C. RH90%, 30 days) | X-ray powder diffraction peak No. 6 ([1]; 40° C., 5 days) | X-ray powder diffraction peak No. 6 ([1]; 40° C., 10 days) | X-ray powder diffraction peak No. 6 ([1]; 40° C., 30 days) | X-ray powder diffraction peak No. 6 ([1]; 60° C., 30 days) | X-ray powder diffraction peak No. 6 ([1]; Light, 5 days) | X-ray powder diffraction peak No. 6 ([1]; Light, 10 days)
20.2: X-ray powder diffraction peak No. 7 ([1]; 0 day (initial)) | X-ray powder diffraction peak No. 7 ([1]; 25° C. RH90%, 10 days) | X-ray powder diffraction peak No. 7 ([1]; 40° C., 10 days) | X-ray powder diffraction peak No. 7 ([1]; Light, 10 days)
23.7: X-ray powder diffraction peak No. 10 ([1]; 40° C., 30 days)
7.3: X-ray powder diffraction peak No. 1 ([1]; 0 day (initial)) | X-ray powder diffraction peak No. 1 ([1]; 25° C. RH75%, 5 days) | X-ray powder diffraction peak No. 1 ([1]; 25° C. RH75%, 10 days) | X-ray powder diffraction peak No. 1 ([1]; 40° C., 10 days) | X-ray powder diffraction peak No. 1 ([1]; Light, 5 days) | X-ray powder diffraction peak No. 1 ([1]; Light, 10 days)
12.6: X-ray powder diffraction peak No. 4 ([1]; 0 day (initial))
21.9: X-ray powder diffraction peak No. 9 ([1]; 0 day (initial)) | X-ray powder diffraction peak No. 9 ([1]; 40° C., 10 days) | X-ray powder diffraction peak No. 9 ([1]; Light, 10 days)
11.8: X-ray powder diffraction peak No. 3 ([1]; 25° C. RH75%, 5 days) | X-ray powder diffraction peak No. 3 ([1]; 25° C. RH75%, 10 days) | X-ray powder diffraction peak No. 3 ([1]; 25° C. RH90%, 5 days) | X-ray powder diffraction peak No. 3 ([1]; 25° C. RH90%, 10 days) | X-ray powder diffraction peak No. 3 ([1]; 25° C. RH90%, 30 days) | X-ray powder diffraction peak No. 3 ([1]; 40° C., 5 days) | X-ray powder diffraction peak No. 3 ([1]; 40° C., 10 days) | X-ray powder diffraction peak No. 3 ([1]; 40° C., 30 days) | X-ray powder diffraction peak No. 3 ([1]; 60° C., 30 days)
38.4: X-ray powder diffraction peak No. 11 ([1]; 0 day (initial))
11.9: X-ray powder diffraction peak No. 3 ([1]; 0 day (initial)) | X-ray powder diffraction peak No. 3 ([1]; Light, 5 days) | X-ray powder diffraction peak No. 3 ([1]; Light, 10 days)
16.5: X-ray powder diffraction peak No. 5 ([1]; 25° C. RH75%, 30 days) | X-ray powder diffraction peak No. 5 ([1]; 25° C. RH90%, 5 days) | X-ray powder diffraction peak No. 5 ([1]; 60° C., 5 days) | X-ray powder diffraction peak No. 5 ([1]; 60° C., 10 days)
10.9: X-ray powder diffraction peak No. 2 ([1]; 60° C., 5 days) | X-ray powder diffraction peak No. 2 ([1]; 60° C., 10 days)
16.6: X-ray powder diffraction peak No. 5 ([1]; 25° C. RH75%, 5 days) | X-ray powder diffraction peak No. 5 ([1]; 25° C. RH75%, 10 days) | X-ray powder diffraction peak No. 5 ([1]; 25° C. RH90%, 10 days) | X-ray powder diffraction peak No. 5 ([1]; 25° C. RH90%, 30 days) | X-ray powder diffraction peak No. 5 ([1]; 40° C., 5 days) | X-ray powder diffraction peak No. 5 ([1]; 40° C., 10 days) | X-ray powder diffraction peak No. 5 ([1]; 40° C., 30 days) | X-ray powder diffraction peak No. 5 ([1]; 60° C., 30 days) | X-ray powder diffraction peak No. 5 ([1]; Light, 5 days)
20.4: X-ray powder diffraction peak No. 8 ([1]; 60° C., 30 days)
11.2: X-ray powder diffraction peak No. 2 ([1]; 25° C. RH75%, 30 days)
20.5: X-ray powder diffraction peak No. 8 ([1]; 25° C. RH75%, 5 days) | X-ray powder diffraction peak No. 8 ([1]; 25° C. RH75%, 10 days) | X-ray powder diffraction peak No. 8 ([1]; 25° C. RH90%, 5 days) | X-ray powder diffraction peak No. 8 ([1]; 25° C. RH90%, 10 days) | X-ray powder diffraction peak No. 8 ([1]; 25° C. RH90%, 30 days) | X-ray powder diffraction peak No. 8 ([1]; 40° C., 5 days) | X-ray powder diffraction peak No. 8 ([1]; 40° C., 10 days) | X-ray powder diffraction peak No. 8 ([1]; 40° C., 30 days) | X-ray powder diffraction peak No. 8 ([1]; Light, 10 days)
23.9: X-ray powder diffraction peak No. 10 ([1]; 0 day (initial)) | X-ray powder diffraction peak No. 10 ([1]; Light, 5 days) | X-ray powder diffraction peak No. 10 ([1]; Light, 10 days)
7.1: X-ray powder diffraction peak No. 1 ([1]; 25° C. RH75%, 30 days) | X-ray powder diffraction peak No. 1 ([1]; 60° C., 5 days)
11.0: X-ray powder diffraction peak No. 2 ([1]; 25° C. RH75%, 5 days) | X-ray powder diffraction peak No. 2 ([1]; 25° C. RH75%, 10 days) | X-ray powder diffraction peak No. 2 ([1]; 25° C. RH90%, 5 days) | X-ray powder diffraction peak No. 2 ([1]; 25° C. RH90%, 10 days) | X-ray powder diffraction peak No. 2 ([1]; 25° C. RH90%, 30 days) | X-ray powder diffraction peak No. 2 ([1]; 40° C., 5 days) | X-ray powder diffraction peak No. 2 ([1]; 40° C., 10 days) | X-ray powder diffraction peak No. 2 ([1]; 40° C., 30 days) | X-ray powder diffraction peak No. 2 ([1]; 60° C., 30 days) | X-ray powder diffraction peak No. 2 ([1]; Light, 5 days)
7.2: X-ray powder diffraction peak No. 1 ([1]; 25° C. RH90%, 5 days) | X-ray powder diffraction peak No. 1 ([1]; 25° C. RH90%, 10 days) | X-ray powder diffraction peak No. 1 ([1]; 25° C. RH90%, 30 days) | X-ray powder diffraction peak No. 1 ([1]; 40° C., 5 days) | X-ray powder diffraction peak No. 1 ([1]; 40° C., 30 days) | X-ray powder diffraction peak No. 1 ([1]; 60° C., 10 days) | X-ray powder diffraction peak No. 1 ([1]; 60° C., 30 days)
23.8: X-ray powder diffraction peak No. 10 ([1]; 25° C. RH90%, 10 days) | X-ray powder diffraction peak No. 10 ([1]; 40° C., 5 days) | X-ray powder diffraction peak No. 10 ([1]; 40° C., 10 days) | X-ray powder diffraction peak No. 10 ([1]; 60° C., 30 days)
20.6: X-ray powder diffraction peak No. 8 ([1]; 0 day (initial)) | X-ray powder diffraction peak No. 8 ([1]; Light, 5 days)
almost insoluble: solubility in n-heptane (in words) [2]
24.0: X-ray powder diffraction peak No. 10 ([1]; 25° C. RH75%, 30 days) | X-ray powder diffraction peak No. 10 ([1]; 25° C. RH90%, 30 days) | X-ray powder diffraction peak No. 10 ([1]; 60° C., 5 days) | X-ray powder diffraction peak No. 10 ([1]; 60° C., 10 days)
No crystal form conversion had occurred: crystal form stability by XRPD (in words) ([1]; light, 40° C., 60° C., 25° C./RH75%, 25° C./RH90%, 5, 10 and 30 days)
38.2: X-ray powder diffraction peak No. 11 ([1]; 25° C. RH75%, 5 days) | X-ray powder diffraction peak No. 11 ([1]; 25° C. RH75%, 10 days) | X-ray powder diffraction peak No. 11 ([1]; 25° C. RH75%, 30 days) | X-ray powder diffraction peak No. 11 ([1]; 25° C. RH90%, 30 days) | X-ray powder diffraction peak No. 11 ([1]; 40° C., 10 days) | X-ray powder diffraction peak No. 11 ([1]; 40° C., 30 days) | X-ray powder diffraction peak No. 11 ([1]; 60° C., 5 days) | X-ray powder diffraction peak No. 11 ([1]; 60° C., 10 days) | X-ray powder diffraction peak No. 11 ([1]; 60° C., 30 days)
22.1: X-ray powder diffraction peak No. 9 ([1]; 40° C., 5 days) | X-ray powder diffraction peak No. 9 ([1]; Light, 5 days)
24.1: X-ray powder diffraction peak No. 10 ([1]; 25° C. RH75%, 5 days) | X-ray powder diffraction peak No. 10 ([1]; 25° C. RH75%, 10 days) | X-ray powder diffraction peak No. 10 ([1]; 25° C. RH90%, 5 days)
20.7: X-ray powder diffraction peak No. 8 ([1]; 25° C. RH75%, 30 days) | X-ray powder diffraction peak No. 8 ([1]; 60° C., 5 days) | X-ray powder diffraction peak No. 8 ([1]; 60° C., 10 days)
38.3: X-ray powder diffraction peak No. 11 ([1]; 25° C. RH90%, 5 days) | X-ray powder diffraction peak No. 11 ([1]; 25° C. RH90%, 10 days) | X-ray powder diffraction peak No. 11 ([1]; 40° C., 5 days) | X-ray powder diffraction peak No. 11 ([1]; Light, 5 days) | X-ray powder diffraction peak No. 11 ([1]; Light, 10 days)
11.1: X-ray powder diffraction peak No. 2 ([1]; 0 day (initial)) | X-ray powder diffraction peak No. 2 ([1]; Light, 10 days)
17.2: X-ray powder diffraction peak No. 6 ([1]; 25° C. RH75%, 30 days) | X-ray powder diffraction peak No. 6 ([1]; 60° C., 5 days) | X-ray powder diffraction peak No. 6 ([1]; 60° C., 10 days)
12.5: X-ray powder diffraction peak No. 4 ([1]; 25° C. RH75%, 5 days) | X-ray powder diffraction peak No. 4 ([1]; 25° C. RH75%, 10 days) | X-ray powder diffraction peak No. 4 ([1]; 25° C. RH90%, 5 days) | X-ray powder diffraction peak No. 4 ([1]; 25° C. RH90%, 10 days) | X-ray powder diffraction peak No. 4 ([1]; 25° C. RH90%, 30 days) | X-ray powder diffraction peak No. 4 ([1]; 40° C., 5 days) | X-ray powder diffraction peak No. 4 ([1]; 40° C., 10 days) | X-ray powder diffraction peak No. 4 ([1]; 40° C., 30 days) | X-ray powder diffraction peak No. 4 ([1]; 60° C., 30 days) | X-ray powder diffraction peak No. 4 ([1]; Light, 5 days) | X-ray powder diffraction peak No. 4 ([1]; Light, 10 days)
20.1: X-ray powder diffraction peak No. 7 ([1]; 25° C. RH75%, 5 days) | X-ray powder diffraction peak No. 7 ([1]; 25° C. RH75%, 10 days) | X-ray powder diffraction peak No. 7 ([1]; 25° C. RH90%, 5 days) | X-ray powder diffraction peak No. 7 ([1]; 25° C. RH90%, 30 days) | X-ray powder diffraction peak No. 7 ([1]; 40° C., 5 days) | X-ray powder diffraction peak No. 7 ([1]; 40° C., 30 days) | X-ray powder diffraction peak No. 7 ([1]; 60° C., 10 days) | X-ray powder diffraction peak No. 7 ([1]; 60° C., 30 days) | X-ray powder diffraction peak No. 7 ([1]; Light, 5 days)
21.7: X-ray powder diffraction peak No. 9 ([1]; 25° C. RH75%, 5 days) | X-ray powder diffraction peak No. 9 ([1]; 25° C. RH90%, 5 days)
11.7: X-ray powder diffraction peak No. 3 ([1]; 25° C. RH75%, 30 days) | X-ray powder diffraction peak No. 3 ([1]; 60° C., 5 days) | X-ray powder diffraction peak No. 3 ([1]; 60° C., 10 days)
21.8: X-ray powder diffraction peak No. 9 ([1]; 25° C. RH75%, 10 days) | X-ray powder diffraction peak No. 9 ([1]; 25° C. RH90%, 10 days) | X-ray powder diffraction peak No. 9 ([1]; 25° C. RH90%, 30 days) | X-ray powder diffraction peak No. 9 ([1]; 60° C., 30 days)
12.4: X-ray powder diffraction peak No. 4 ([1]; 25° C. RH75%, 30 days) | X-ray powder diffraction peak No. 4 ([1]; 60° C., 5 days) | X-ray powder diffraction peak No. 4 ([1]; 60° C., 10 days)
20.0: X-ray powder diffraction peak No. 7 ([1]; 25° C. RH75%, 30 days) | X-ray powder diffraction peak No. 7 ([1]; 60° C., 5 days)
16.7: X-ray powder diffraction peak No. 5 ([1]; 0 day (initial)) | X-ray powder diffraction peak No. 5 ([1]; Light, 10 days)
17.4: X-ray powder diffraction peak No. 6 ([1]; 0 day (initial))
22.0: X-ray powder diffraction peak No. 9 ([1]; 25° C. RH75%, 30 days) | X-ray powder diffraction peak No. 9 ([1]; 40° C., 30 days) | X-ray powder diffraction peak No. 9 ([1]; 60° C., 5 days) | X-ray powder diffraction peak No. 9 ([1]; 60° C., 10 days)
